These results are taken from patent US6900216B2, “Dihydroimidazo[2,1-b]thiazole and dihydro-5h-thiazolo[3,2-A]pyrimidines as antidepressant agents” (Knoll GmbH, priority 2000, dated 2005).

For one test, the target named is T1, 5-HT reuptake sites (Rattus norvegicus, UniProt P31652).
T1 construct: Frontal cortical tissue from the brains of male Charles River rats; from tissue; host or cells: rat frontal cortical membranes
Put plainly: 5-HT uptake: displacement of [3H]citalopram from 5-HT reuptake sites, rat frontal cortical membranes. The test is classed as binding. The settings on record: for inhibition at 1 µM: 10^−6 M test compound, single determination, [3H]citalopram; for Ki: [3H]citalopram 1.3 nM, rat frontal cortical membranes, fit to data from three experiments. How it is done: Frontal cortical tissue from the brains of male Charles River rats weighing 150-250 g was homogenised in ice-cold 50 mM Tris-HCl, pH 7.4 (when measured at 25° C.) containing 120 mM sodium chloride and 5 mM potassium chloride (Tris buffer; 1:30 w/v) and centrifuged at 40,000 g for 10 minutes. The supernatant was discarded and the pellet rehomogenised in Tris buffer, 1:60 w/v, and centrifuged at 40,000 g for 10 minutes. This step was repeated a further time. The final pellet was resuspended in 50 mM Tris-HCl, pH 7.4 containing 120 mM sodium chloride and 5 mM potassium chloride (equivalent to 3.125 mg wet weight of tissue/ml) and used immediately in the binding assay. All centrifugations were performed at 4° C.
Membranes (400 μl; equivalent to 1.25 mg wet weight of tissue/tube) were incubated with 50 μl [^3H]citalopram at a single concentration of 1.3 nM and 50 μl of distilled water (total binding) or 50 μl of test compound (at a single concentration of 10^−6 M or at 10 concentrations ranging from 10^−11-10^−3 M) or 50 μl of paroxetine (0.5 μM; non-specific binding) for 1 h at 27° C. Membrane bound radioactivity was recovered by filtration under vacuum through Skatron 11734 filters presoaked in 0.5% PEI using a Skatron Cell Harvester. Filters were then washed in ice-cold 50 mM Tris-HCl buffer, pH 7.4 (at 25° C., wash setting 9,9,0). The scored filter paper discs were punched out into vials, scintillation fluid added and radioactivity determined by liquid scintillation counting.
(§1) For each of these tests measuring the ability of compounds of Formula I to displace standard ligands from 5-HT1A receptors and 5-hydroxytryptamine (5-HT) and noradrenaline (NA) reuptake sites and muscarinic receptors in vitro, the percentage displacement of specific binding of tritiated ligand by 10^−6 M test compound was calculated in the following way.
(§2) Firstly, specific binding of tritiated ligand in the absence (A) and presence (B) of test compound was determined:
(§3) In the absence of compound: A(dpm)=Total binding (dpm)−Non-specific binding (dpm) In the presence of compound (10^−6 M): B(dpm)=Binding at 10^−6M (dpm)−Non-specific binding (dpm)
(§4) The specific binding of tritiated ligand in the presence (B) of compound was then converted to a percentage of specific binding of tritiated ligand in the absence (A) of compound: % Specific binding at 10^−6 M=B(dpm)/A(dpm)×100
(§5) The percentage displacement of specific binding of tritiated ligand by the test compound (10^−6 M) was then obtained by subtraction of the percentage specific binding in the presence of compound from the percentage specific binding in the absence of compound, which is taken as the maximum binding and so equals 100%:
(§6) % Displacement at 10^−6 M=100−% Specific binding at 10^−6 M.
(§7) In some cases, displacement curves were then produced for compounds which displaced ≧50% of specific binding of the tritiated ligand at 10^−6 M using a range of concentrations of the compound. The Ki was then calculated by simultaneous fitting using equations derived from the Feldman equations by robust non-linear regression to data from three experiments simultaneously (De Lean et al., 1978; Munson and Rodbard, 1980; Feldman, 1992). Munson P J and Rodbard D. Ligand: a versatile computerised approach for characterisation of ligand binding systems. Anal Biochem 1980; 107: 220. Feldman HA. Mathematical theory of complex ligand binding systems at equilibrium: some methods for parameter fitting. Anal Biochem 1992: 48, 317. De Lean A, Munson P J and Rodbard D. Simultaneous analysis of families of sigmoidal curves: application to bioassay, radioligand assay, and physiological dose-response curves. Am J Physiol 1978: 235 (2), E97-E102.
The results obtained in the above tests for 5-HT1A binding and 5-HT and NA uptake and muscarinic binding for the final products of Examples 1-39 hereinafter are given in Table 1 below. Kis are in nM. % Figures are for % displacement at 10^−6 M for a single determination.

In the next test the test system is muscarinic receptors. Put plainly: Muscarinic binding: displacement of [3H]N-methylscopolamine, rat frontal cortical membranes. The settings on record: for Muscarinic % displacement at 10^−6 M: 10^−6 M test compound, single determination, [3H]N-methylscopolamine. How it is done:
Frontal cortical tissue from the brains of male Charles River rats weighing 150-250 g was homogenised in ice-cold 20 mM HEPES buffer, pH 7.5 (measured at 25° C.) containing 100 mM sodium chloride and 10 mM magnesium chloride (1:10 w/v) using a Polytron PT3100 (speed setting 21,700 rpm, 3×5 seconds) and centrifuged at 49,500 g for 30 minutes at 4° C. The supernatant was discarded and the pellet rehomogenised in 20 mM HEPES buffer, pH 7.5 containing 100 mM sodium chloride and 10 mM magnesium chloride (equivalent to 12.5 mg wet weight of tissue/ml). Membranes were stored at −80° C. until required.
Membranes were thawed, diluted 1:10 in ice-cold 20 mM HEPES buffer, pH 7.5 containing 100 mM sodium chloride and 10 mM magnesium chloride and homogenised using a Polytron PT3100 as above. Diluted membranes (200 μl; equivalent to 0.25 mg wet weight of tissue/tube) were incubated with 200 μl of 20 mM HEPES buffer, pH 7.5 containing 100 mM sodium chloride and 10 mM magnesium chloride and 50 μl [^3H]N-methylscopolamine at a single concentration of 0.15 nM and 50 μl distilled water (total binding) or 50 μl test compound (at a single concentration of 10^−6 M or at 10 concentrations ranging from 10^−11-10^−3 M) or 50 μl atropine sulphate (1 μM; non-specific binding) for 30 min at 30° C. Membrane bound radioactivity was recovered by filtration under vacuum through Skatron 11734 filters using a Skatron cell harvester. Filters were rapidly washed with ice-cold 20 mM HEPES buffer, pH 7.5 (wash 1,2 at setting 5,5). The scored filter paper discs were punched out into vials, scintillation fluid added and radioactivity determined by liquid scintillation counting.
as §1, §2, §3, §4, §5, §6
as §7, with “E97-E102. […]” for “E97-E102.”

T1 sequence (P31652 whole entry): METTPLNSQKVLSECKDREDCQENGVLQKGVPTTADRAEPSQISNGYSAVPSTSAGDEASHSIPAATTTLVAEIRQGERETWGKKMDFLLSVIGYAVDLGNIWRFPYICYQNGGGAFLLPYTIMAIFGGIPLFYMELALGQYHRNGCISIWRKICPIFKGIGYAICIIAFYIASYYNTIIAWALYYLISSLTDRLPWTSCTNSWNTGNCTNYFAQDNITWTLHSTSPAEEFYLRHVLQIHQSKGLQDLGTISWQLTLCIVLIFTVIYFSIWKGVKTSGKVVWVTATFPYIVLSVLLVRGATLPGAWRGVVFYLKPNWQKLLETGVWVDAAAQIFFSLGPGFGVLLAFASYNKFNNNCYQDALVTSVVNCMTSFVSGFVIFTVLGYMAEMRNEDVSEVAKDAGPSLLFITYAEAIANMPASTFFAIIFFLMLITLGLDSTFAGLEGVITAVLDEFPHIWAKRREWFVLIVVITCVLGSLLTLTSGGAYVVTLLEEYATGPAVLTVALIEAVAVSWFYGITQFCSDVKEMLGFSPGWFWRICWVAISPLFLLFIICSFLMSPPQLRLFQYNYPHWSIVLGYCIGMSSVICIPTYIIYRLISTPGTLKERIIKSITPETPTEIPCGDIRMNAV

As usually defined, the inhibition is the change of the read-out against control, counted positive when it falls. Higher therefore signals a response far below the control. The compound `Br.Clc1cccc2sc(C3=CSC4=NCCN34)cc12` [Example 1, 3-(4-chlorobenzo[b]thiophen-2-yl)-5,6-dihydroimidazo[2,1-b]thiazole hydrobromide] gave an inhibition at 1 µM on 5-HT reuptake sites of 97%. Also, in the test on muscarinic receptors, the “Muscarinic % displacement at 10^−6 M” value turned out to be 7%. For orientation: Ki means a dissociation constant, usually derived from enzyme kinetics or from competition with a known ligand. A low value points to tighter binding. `C1=C(c2cccc3sccc23)N2CCN=C2S1.Cl` [Example 2, 3-(benzo[b]thiophen-4-yl)-5,6-dihydroimidazo[2,1-b]thiazole hydrochloride]: on 5-HT reuptake sites, the Ki came out at 45 nM. In the test with muscarinic receptors, the “Muscarinic % displacement at 10^−6 M” value came to 20%. Take `OCC1=C(c2cccc3sccc23)N2CCN=C2S1` [Example 3, [3-(benzo[b]thiophen-4-yl)-5,6-dihydroimidazo[2,1-b]thiazol-2-yl]methanol]: on 5-HT reuptake sites, the Ki is 175 nM. Besides, the “Muscarinic % displacement at 10^−6 M” value in the test on muscarinic receptors is on record as −3%. On to `OCC1=C(c2cc3c(Cl)cccc3s2)N2CCN=C2S1` [Example 4, [3-(4-chlorobenzo[b]thiophen-2-yl)-5,6-dihydroimidazo[2,1-b]thiazol-2-yl]methanol], for which the Ki at 5-HT reuptake sites was 36 nM. The “Muscarinic % displacement at 10^−6 M” value in the test on muscarinic receptors turned out to be 0%.

Compound `Cl.Fc1cccc2sc(C3=CSC4=NCCN34)cc12` [Example 5, 3-(4-fluorobenzo[b]thiophen-2-yl)-5,6-dihydroimidazo[2,1-b]thiazole hydrochloride] registered an inhibition at 1 µM at 5-HT reuptake sites of 95%. Also, in the test with muscarinic receptors, the “Muscarinic % displacement at 10^−6 M” value came to 42%. On 5-HT reuptake sites, `Br.CC1=C(c2cc3ccccc3s2)N2CCN=C2S1` [Example 6, 3-(benzo[b]thiophen-2-yl)-2-methyl-5,6-dihydroimidazo[2,1-b]thiazole hydrobromide] yielded a Ki of 44.4 nM. The “Muscarinic % displacement at 10^−6 M” value with muscarinic receptors is −2%. As for `Br.CC1=C(c2cc3c(F)cccc3s2)N2CCN=C2S1` [Example 7, 3-(4-fluorobenzo[b]thiophen-2-yl)-2-methyl-5,6-dihydroimidazo[2,1-b]thiazole hydrobromide], on 5-HT reuptake sites, affinity was put at a Ki of 127 nM. Moreover, in the test with muscarinic receptors, the “Muscarinic % displacement at 10^−6 M” value came to 17%. The corresponding values for `Br.CC1=C(c2cccc3sccc23)N2CCN=C2S1` [Example 8, 3-(benzo[b]thiophen-4-yl)-2-methyl-5,6-dihydroimidazo[2,1-b]thiazole hydrobromide] are 275 nM and 0%. The corresponding values for `CC1=C(c2cccc3sccc23)N2CCN=C2S1.Cl` [Example 9, 3-(benzo[b]thiophen-4-yl)-2-methyl-5,6-dihydroimidazo[2,1-b]thiazole hydrochloride] are 387 nM and 13%.

Consider `Br.CC1=C(c2cc3c(Cl)cccc3s2)N2CCN=C2S1` [Example 10, 3-(4-chlorobenzo[b]thiophen-2-yl)-2-methyl-5,6-dihydroimidazo[2,1-b]thiazole hydrobromide], for which the affinity at 5-HT reuptake sites corresponds to a Ki of 29.3 nM. Besides, the “Muscarinic % displacement at 10^−6 M” value with muscarinic receptors was found to be 12%. Turning to `Br.CCC1=C(c2cc3cc(Cl)ccc3s2)N2CCN=C2S1` [Example 11, 3-(5-chlorobenzo[b]thiophen-2-yl)-2-ethyl-5,6-dihydroimidazo[2,1-b]thiazole hydrobromide], the inhibition at 1 µM on 5-HT reuptake sites was determined as 97%. The “Muscarinic % displacement at 10^−6 M” value with muscarinic receptors was 44%. For the compound `Br.Oc1cccc2sc(C3=CSC4=NCCN34)cc12` [Example 12, 2-(5,6-dihydroimidazo[2,1-b]thiazol-3-yl)benzo[b]thiophen-4-ol hydrobromide], the Ki at 5-HT reuptake sites turned out to be 16 nM. In addition, the “Muscarinic % displacement at 10^−6 M” value with muscarinic receptors amounted to 22%. Take `Br.CCC1=C(c2cccc3sccc23)N2CCN=C2S1` [Example 13, 3-(benzo[b]thiophen-4-yl)-2-ethyl-5,6-dihydroimidazo[2,1-b]thiazole hydrobromide]: the Ki at 5-HT reuptake sites amounted to 84 nM; at muscarinic receptors ([3H]N-methylscopolamine 0.15 nM, rat frontal cortical membranes), 371 nM. `Cc1cccc2sc(C3=CSC4=NCCN34)cc12.Cl` [Example 14, 3-(4-methylbenzo[b]thiophen-2-yl)-5,6-dihydroimidazo[2,1-b]thiazole hydrochloride] showed an inhibition at 1 µM on 5-HT reuptake sites of 96%. Besides, in the test on muscarinic receptors, the “Muscarinic % displacement at 10^−6 M” value was 9%. The compound `OCC1=C(c2cc3ccccc3s2)N2CCN=C2S1` [Example 15, [3-(benzo[b]thiophen-2-yl)-5,6-dihydroimidazo[2,1-b]thiazol-2-yl]methanol] yielded an inhibition at 1 µM at 5-HT reuptake sites of 75%. The “Muscarinic % displacement at 10^−6 M” value in the test on muscarinic receptors is recorded as −15%. The corresponding values for `Br.CC1=C(c2cc3c(C)cccc3s2)N2CCN=C2S1` [Example 16, 2-methyl-3-(4-methylbenzo[b]thiophen-2-yl)-5,6-dihydroimidazo[2,1-b]thiazole hydrobromide] are 93% and 0%. The corresponding values for `Br.CC1=C(c2cc3c(Cl)cccc3s2)N2CCCN=C2S1` [Example 17, 3-(4-chlorobenzo[b]thiophen-2-yl)-2-methyl-6,7-dihydro-5H-thiazolo[3,2-a]pyrimidine hydrobromide] are 84% and 29%. For the compound `Br.CCC1=C(c2cc3c(Cl)cccc3s2)N2CCN=C2S1` [Example 18, 3-(4-chlorobenzo[b]thiophen-2-yl)-2-ethyl-5,6-dihydroimidazo[2,1-b]thiazole hydrobromide], on 5-HT reuptake sites, the inhibition at 1 µM is 96%. Also, the “Muscarinic % displacement at 10^−6 M” value with muscarinic receptors is listed as 12%. In the case of `C=CC1=C(c2cccc3sccc23)N2CCN=C2S1.Cl` [Example 39, 3-(benzo[b]thiophen-4-yl)-2-vinyl-5,6-dihydroimidazo[2,1-b]thiazole hydrochloride], on 5-HT reuptake sites, 1 µM produced 70% inhibition.
